Measured values: article PMC3270411 (Chemistry & biology, 2012)

Experiments:
Assay in all cases: KiNativ cellular kinase profiling
Format in all cases: cell-based
[1] = tested on: ZC1/HGK,ZC2/TNIK, ZC3/MINK; settings: A375 cells, 1 μM, 3 hours, labeling site Lys2
[2] = target: ZAK (Homo sapiens, UniProt Q9NYL2); settings: for Percent inhibition of kinase labeling by ATP-biotin: A375 cells, 1 μM, 3 hours, ZAK, labeling site Lys1; for inhibition at 1 µM: A-375, read-out: Percent inhibition of kinase labeling by ATP-biotin
Sequence of ZAK (Q9NYL2 whole entry): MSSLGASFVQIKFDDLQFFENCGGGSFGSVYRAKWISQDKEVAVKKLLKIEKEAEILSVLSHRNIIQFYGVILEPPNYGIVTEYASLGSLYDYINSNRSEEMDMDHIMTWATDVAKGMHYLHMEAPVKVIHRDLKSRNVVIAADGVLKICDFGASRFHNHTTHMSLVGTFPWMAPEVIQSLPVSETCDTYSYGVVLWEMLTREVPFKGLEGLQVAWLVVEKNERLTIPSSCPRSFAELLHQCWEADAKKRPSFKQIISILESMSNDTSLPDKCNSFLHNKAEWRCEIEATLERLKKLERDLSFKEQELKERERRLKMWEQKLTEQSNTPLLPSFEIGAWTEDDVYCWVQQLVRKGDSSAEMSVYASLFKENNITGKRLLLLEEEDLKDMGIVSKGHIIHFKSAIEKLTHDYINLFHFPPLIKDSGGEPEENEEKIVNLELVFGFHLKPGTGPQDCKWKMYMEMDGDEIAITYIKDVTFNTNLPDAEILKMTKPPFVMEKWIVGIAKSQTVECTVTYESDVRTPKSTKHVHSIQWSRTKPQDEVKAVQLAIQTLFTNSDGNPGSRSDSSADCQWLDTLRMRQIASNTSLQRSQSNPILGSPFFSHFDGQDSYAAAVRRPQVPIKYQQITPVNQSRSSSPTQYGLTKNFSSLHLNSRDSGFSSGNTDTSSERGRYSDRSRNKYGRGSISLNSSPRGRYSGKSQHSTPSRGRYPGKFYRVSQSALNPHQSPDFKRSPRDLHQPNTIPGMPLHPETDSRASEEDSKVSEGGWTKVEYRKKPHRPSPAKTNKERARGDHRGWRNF

[3] = target: RAF1 (Homo sapiens, UniProt P04049); settings: for Percent inhibition of kinase labeling by ATP-biotin: A375 cells, 1 μM, 3 hours, RAF1, labeling site Lys2; for inhibition at 1 µM: A-375, read-out: Percent inhibition of kinase labeling by ATP-biotin
[4] = target: T1, PKD1 (Homo sapiens, UniProt Q15139); settings: for Percent inhibition of kinase labeling by ATP-biotin: A375 cells, 1 μM, 3 hours, PKD1, labeling site Lys1; for inhibition at 1 µM: A-375, read-out: Percent inhibition of kinase labeling by ATP-biotin
T1 sequence (Q15139 1-912): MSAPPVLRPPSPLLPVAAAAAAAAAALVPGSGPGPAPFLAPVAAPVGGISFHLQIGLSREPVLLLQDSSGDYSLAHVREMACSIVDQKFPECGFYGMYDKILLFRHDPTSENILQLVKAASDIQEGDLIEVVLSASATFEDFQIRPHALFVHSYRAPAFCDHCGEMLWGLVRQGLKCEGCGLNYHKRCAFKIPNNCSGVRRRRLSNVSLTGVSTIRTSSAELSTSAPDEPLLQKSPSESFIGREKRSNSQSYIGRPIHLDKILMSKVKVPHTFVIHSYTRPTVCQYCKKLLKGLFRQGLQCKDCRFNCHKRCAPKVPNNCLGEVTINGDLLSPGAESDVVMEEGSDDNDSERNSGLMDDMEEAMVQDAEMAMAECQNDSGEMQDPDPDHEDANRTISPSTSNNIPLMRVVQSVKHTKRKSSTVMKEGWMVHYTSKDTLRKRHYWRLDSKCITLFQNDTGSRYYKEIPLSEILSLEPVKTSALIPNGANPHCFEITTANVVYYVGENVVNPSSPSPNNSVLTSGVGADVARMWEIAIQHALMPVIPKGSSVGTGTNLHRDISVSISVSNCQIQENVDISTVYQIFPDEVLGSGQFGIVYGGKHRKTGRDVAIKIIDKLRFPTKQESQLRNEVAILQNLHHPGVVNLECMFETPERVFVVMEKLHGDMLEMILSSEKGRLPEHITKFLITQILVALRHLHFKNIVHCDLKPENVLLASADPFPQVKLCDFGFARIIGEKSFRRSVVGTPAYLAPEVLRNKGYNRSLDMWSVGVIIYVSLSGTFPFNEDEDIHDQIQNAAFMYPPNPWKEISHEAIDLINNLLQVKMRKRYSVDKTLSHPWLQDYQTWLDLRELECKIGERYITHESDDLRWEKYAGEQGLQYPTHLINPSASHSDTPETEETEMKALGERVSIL

[5] = tested on: ZC2/TNIK,ZC3/MINK; settings: A375 cells, 1 μM, 3 hours, labeling site Lys2
[6] = target: BRAF (Homo sapiens, UniProt P15056); settings: for Percent inhibition of kinase labeling by ATP-biotin: A375 cells, 1 μM, 3 hours, BRAF, labeling site Lys2; for inhibition at 1 µM: A-375, read-out: Percent inhibition of kinase labeling by ATP-biotin
Sequence of BRAF (P15056 whole entry): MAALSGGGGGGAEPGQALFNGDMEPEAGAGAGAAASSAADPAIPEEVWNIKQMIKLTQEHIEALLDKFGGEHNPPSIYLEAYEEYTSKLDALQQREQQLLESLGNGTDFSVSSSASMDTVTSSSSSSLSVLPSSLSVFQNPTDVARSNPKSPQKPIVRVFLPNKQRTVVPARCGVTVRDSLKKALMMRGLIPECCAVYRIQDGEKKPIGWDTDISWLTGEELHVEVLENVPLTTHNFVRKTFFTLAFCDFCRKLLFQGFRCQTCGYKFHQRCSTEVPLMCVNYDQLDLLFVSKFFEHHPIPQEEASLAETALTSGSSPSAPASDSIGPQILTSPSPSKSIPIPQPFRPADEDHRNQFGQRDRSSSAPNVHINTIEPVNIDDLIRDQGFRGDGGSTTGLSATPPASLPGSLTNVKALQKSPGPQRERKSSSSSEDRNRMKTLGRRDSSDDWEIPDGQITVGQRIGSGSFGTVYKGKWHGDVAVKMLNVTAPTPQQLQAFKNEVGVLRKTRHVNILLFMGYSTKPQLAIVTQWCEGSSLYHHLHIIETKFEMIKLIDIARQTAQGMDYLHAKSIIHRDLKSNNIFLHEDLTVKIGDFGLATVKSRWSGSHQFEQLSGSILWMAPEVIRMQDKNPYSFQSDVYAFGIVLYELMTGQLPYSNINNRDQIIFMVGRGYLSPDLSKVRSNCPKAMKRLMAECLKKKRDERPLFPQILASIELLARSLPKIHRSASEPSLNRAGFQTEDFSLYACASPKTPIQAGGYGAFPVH

[7] = target: ZC2/TNIK (Homo sapiens, UniProt Q9UKE5); settings: for Percent inhibition of kinase labeling by ATP-biotin: A375 cells, 1 μM, 3 hours, ZC2/TNIK, labeling site Lys1; for inhibition at 1 µM: A-375, read-out: Percent inhibition of kinase labeling by ATP-biotin
Sequence of ZC2/TNIK (Q9UKE5 whole entry): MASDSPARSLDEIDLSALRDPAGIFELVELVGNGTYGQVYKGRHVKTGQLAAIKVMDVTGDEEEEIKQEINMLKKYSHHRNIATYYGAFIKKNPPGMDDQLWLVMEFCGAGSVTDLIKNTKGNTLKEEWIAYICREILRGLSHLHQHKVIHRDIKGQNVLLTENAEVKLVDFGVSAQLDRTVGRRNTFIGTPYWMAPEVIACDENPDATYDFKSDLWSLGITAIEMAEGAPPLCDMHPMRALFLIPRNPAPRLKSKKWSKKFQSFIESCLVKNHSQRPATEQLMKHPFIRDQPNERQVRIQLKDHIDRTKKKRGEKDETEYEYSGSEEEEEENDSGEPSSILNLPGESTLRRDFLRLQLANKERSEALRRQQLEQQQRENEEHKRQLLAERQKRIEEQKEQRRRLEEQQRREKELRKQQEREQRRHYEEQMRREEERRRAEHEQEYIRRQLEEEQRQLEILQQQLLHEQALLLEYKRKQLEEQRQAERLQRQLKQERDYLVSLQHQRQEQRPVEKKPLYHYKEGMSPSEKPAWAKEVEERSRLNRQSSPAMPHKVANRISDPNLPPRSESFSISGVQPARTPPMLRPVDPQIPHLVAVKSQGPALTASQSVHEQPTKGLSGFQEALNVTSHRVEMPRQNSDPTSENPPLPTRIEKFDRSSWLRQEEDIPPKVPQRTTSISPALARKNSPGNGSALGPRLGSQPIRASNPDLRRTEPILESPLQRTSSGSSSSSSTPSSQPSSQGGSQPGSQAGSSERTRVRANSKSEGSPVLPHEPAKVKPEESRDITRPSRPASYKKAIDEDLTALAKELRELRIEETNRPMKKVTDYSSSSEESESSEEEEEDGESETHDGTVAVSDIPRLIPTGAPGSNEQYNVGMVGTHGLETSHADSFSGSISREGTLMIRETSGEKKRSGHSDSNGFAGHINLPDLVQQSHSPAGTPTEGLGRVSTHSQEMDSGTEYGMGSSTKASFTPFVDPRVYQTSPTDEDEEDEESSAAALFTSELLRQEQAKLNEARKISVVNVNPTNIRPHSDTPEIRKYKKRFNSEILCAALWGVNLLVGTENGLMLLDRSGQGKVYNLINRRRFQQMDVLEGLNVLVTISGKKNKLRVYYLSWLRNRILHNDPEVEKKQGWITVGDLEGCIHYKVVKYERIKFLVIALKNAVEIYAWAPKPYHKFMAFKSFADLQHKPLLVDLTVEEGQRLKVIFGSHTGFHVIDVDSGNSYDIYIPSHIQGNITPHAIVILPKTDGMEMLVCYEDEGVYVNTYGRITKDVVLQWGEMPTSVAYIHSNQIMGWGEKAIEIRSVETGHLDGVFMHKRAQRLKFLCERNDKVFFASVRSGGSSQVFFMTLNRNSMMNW

[8] = target: CK1a (Homo sapiens, UniProt P48729); settings: for Percent inhibition of kinase labeling by ATP-biotin: A375 cells, 1 μM, 3 hours, CK1a, labeling site Lys2; for inhibition at 1 µM: A-375, read-out: Percent inhibition of kinase labeling by ATP-biotin
Sequence of CK1a (P48729 whole entry): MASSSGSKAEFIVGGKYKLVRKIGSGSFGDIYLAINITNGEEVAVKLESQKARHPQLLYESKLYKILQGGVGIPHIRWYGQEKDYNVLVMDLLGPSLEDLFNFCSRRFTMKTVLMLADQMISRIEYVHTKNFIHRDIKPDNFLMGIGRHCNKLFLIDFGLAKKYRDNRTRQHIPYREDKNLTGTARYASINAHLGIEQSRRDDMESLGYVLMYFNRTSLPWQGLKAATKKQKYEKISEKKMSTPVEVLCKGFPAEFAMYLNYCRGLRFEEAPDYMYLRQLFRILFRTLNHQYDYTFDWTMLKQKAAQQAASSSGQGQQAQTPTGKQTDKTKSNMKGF

[9] = tested on: CK1d,CK1e; settings: A375 cells, 1 μM, 3 hours, labeling site Lys2
[10] = target: MARK1 (Homo sapiens, UniProt Q9P0L2); settings: for Percent inhibition of kinase labeling by ATP-biotin: A375 cells, 1 μM, 3 hours, MARK1, labeling site Lys2; for inhibition at 1 µM: A-375, read-out: Percent inhibition of kinase labeling by ATP-biotin
[11] = tested on: JNK1,JNK2,JNK3; settings: A375 cells, 1 μM, 3 hours; JNK1,JNK2,JNK3, labeling site Lys2
[12] = tested on: MARK2,MARK3; settings: A375 cells, 1 μM, 3 hours; MARK2,MARK3, labeling site Lys2
[13] = tested on: TAO1,TAO3; settings: A375 cells, 1 μM, 3 hours; TAO1,TAO3, labeling site Lys2
[14] = target: GSK3A (Homo sapiens, UniProt P49840); settings: for Percent inhibition of kinase labeling by ATP-biotin: A375 cells, 1 μM, 3 hours, GSK3A, labeling site Lys2; for inhibition at 1 µM: A-375, read-out: Percent inhibition of kinase labeling by ATP-biotin
Sequence of GSK3A (P49840 whole entry): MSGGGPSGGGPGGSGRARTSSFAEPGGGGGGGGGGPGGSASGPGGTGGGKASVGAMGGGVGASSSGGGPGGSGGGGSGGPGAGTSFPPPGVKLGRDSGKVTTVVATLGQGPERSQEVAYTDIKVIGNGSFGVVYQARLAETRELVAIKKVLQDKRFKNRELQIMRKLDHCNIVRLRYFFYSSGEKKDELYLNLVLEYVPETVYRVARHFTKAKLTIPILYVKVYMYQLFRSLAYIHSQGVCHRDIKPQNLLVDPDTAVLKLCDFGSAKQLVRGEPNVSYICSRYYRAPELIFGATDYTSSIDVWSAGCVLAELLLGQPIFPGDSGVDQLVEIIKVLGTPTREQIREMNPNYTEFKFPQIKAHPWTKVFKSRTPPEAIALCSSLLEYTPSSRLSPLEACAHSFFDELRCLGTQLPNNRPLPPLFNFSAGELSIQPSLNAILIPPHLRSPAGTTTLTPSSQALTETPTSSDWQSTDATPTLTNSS

[15] = target: MARK3 (Homo sapiens, UniProt P27448); settings: for Percent inhibition of kinase labeling by ATP-biotin: A375 cells, 1 μM, 3 hours, MARK3, labeling site Lys1; for inhibition at 1 µM: A-375, read-out: Percent inhibition of kinase labeling by ATP-biotin
Sequence of MARK3 (P27448 whole entry): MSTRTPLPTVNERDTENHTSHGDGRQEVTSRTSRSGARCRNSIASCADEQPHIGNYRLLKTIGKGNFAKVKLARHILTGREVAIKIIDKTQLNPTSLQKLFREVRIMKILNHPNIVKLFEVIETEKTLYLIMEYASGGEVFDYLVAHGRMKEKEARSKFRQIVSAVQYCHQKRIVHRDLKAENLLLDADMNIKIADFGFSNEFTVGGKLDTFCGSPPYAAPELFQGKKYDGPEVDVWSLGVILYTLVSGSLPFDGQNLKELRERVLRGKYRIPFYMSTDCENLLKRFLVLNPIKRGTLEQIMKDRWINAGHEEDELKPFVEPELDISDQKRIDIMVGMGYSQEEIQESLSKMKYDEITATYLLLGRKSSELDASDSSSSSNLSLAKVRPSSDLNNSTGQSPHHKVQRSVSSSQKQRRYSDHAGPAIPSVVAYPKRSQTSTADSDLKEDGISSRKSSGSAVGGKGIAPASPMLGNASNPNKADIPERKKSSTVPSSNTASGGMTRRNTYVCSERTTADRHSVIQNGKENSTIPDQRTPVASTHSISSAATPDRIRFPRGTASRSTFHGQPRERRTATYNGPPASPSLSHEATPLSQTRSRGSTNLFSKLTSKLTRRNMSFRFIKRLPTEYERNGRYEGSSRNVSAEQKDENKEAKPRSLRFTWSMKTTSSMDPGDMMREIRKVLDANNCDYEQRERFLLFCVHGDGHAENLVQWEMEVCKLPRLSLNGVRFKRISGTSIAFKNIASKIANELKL

| Structure (SMILES) | Percent inhibition of kinase labeling by ATP-biotin [1] [%] | Percent inhibition of kinase labeling by ATP-biotin [2] [%] | Percent inhibition of kinase labeling by ATP-biotin [3] [%] | Percent inhibition of kinase labeling by ATP-biotin [4] [%] | Percent inhibition of kinase labeling by ATP-biotin [5] [%] | Percent inhibition of kinase labeling by ATP-biotin [6] [%] | Percent inhibition of kinase labeling by ATP-biotin [7] [%] | Percent inhibition of kinase labeling by ATP-biotin [9] [%] | Percent inhibition of kinase labeling by ATP-biotin [11] [%] | Percent inhibition of kinase labeling by ATP-biotin [12] [%] | Percent inhibition of kinase labeling by ATP-biotin [13] [%] | inhibition at 1 µM [2] [%] | inhibition at 1 µM [3] [%] | inhibition at 1 µM [4] [%] | inhibition at 1 µM [6] [%] | inhibition at 1 µM [7] [%] | inhibition at 1 µM [8] [%] | inhibition at 1 µM [10] [%] | inhibition at 1 µM [14] [%] | inhibition at 1 µM [15] [%] | also measured |
| --- | --- | --- | --- | --- | --- | --- | --- | --- | --- | --- | --- | --- | --- | --- | --- | --- | --- | --- | --- | --- | --- |
| CCC(=O)Nc1cccc(C(=O)Nc2ccc(Nc3nccc(-c4cccnc4)n3)cc2)c1 [JNK-IN-6] | 8.8 | 3 | −20.2 | 28.7 | 52.8 | 8.9 | −15.9 | 32.4 | 27.3 | 22.9 | 35.8 | – | – | – | – | – | – | – | – | – | Percent inhibition of kinase labeling by ATP-biotin [8]: 19.5%; Percent inhibition of kinase labeling by ATP-biotin [10]: 23.9%; Percent inhibition of kinase labeling by ATP-biotin [14]: 6.8%; Percent inhibition of kinase labeling by ATP-biotin [15]: −7.3% |
| CN(C)C/C=C/C(=O)Nc1cccc(C(=O)Nc2ccc(Nc3nccc(-c4cccnc4)n3)cc2)c1 [JNK-IN-7] | 8.3 | – | – | – | 31 | – | – | 8.4 | 99.7 | 26.5 | 13.1 | 15.5 | -7.3 | 2 | 7 | 20.9 | -20.2 | 7.9 | 20.4 | -13.5 | – |
| Cc1cc(NC(=O)c2cccc(NC(=O)/C=C/CN(C)C)c2)ccc1Nc1nccc(-c2cccnc2)n1 [JNK-IN-8] | −11.3 | – | – | – | 45.1 | – | – | −21.8 | 98.7 | 13.9 | 2.9 | -7.8 | -41.4 | 8.6 | -23.7 | 9.9 | -13.6 | 8.9 | 10.6 | -12 | – |
| CN(C)C/C=C/C(=O)Nc1cccc(C(=O)Nc2ccc(Nc3nccc(-c4c(-c5ccccc5)nn5ccccc45)n3)cc2)c1 [JNK-IN-11] | 65.1 | – | – | – | 75.9 | – | – | 88.4 | 99.8 | 0.4 | 34.1 | 84.4 | 25.5 | 29.4 | 27.8 | > 80 | 61.1 | 18.6 | 40.7 | -27.8 | – |
| CN(C)C/C=C/C(=O)Nc1cccc(C(=O)Nc2ccc(Nc3nccc(/C(C#N)=C4\Nc5ccccc5S4)n3)cc2)c1 [JNK-IN-12] | −25.5 | −40.2 | 8.6 | −21.6 | −36.2 | 6.2 | −8.9 | −75 | 98.6 | −38.7 | −10.8 | – | – | – | – | – | – | – | – | – | Percent inhibition of kinase labeling by ATP-biotin [8]: −96%; Percent inhibition of kinase labeling by ATP-biotin [10]: −43.5%; Percent inhibition of kinase labeling by ATP-biotin [14]: −7.7%; Percent inhibition of kinase labeling by ATP-biotin [15]: −67.9% |
